Laboratory results published in publication PMC5750218, “Protein-inspired antibiotics active against vancomycin- and daptomycin-resistant bacteria” (Nature Communications, 2018).
In brackets after ≈: the same amount, converted by molar mass.

What was measured:
[1] = tested on: Multi-drug-resistant S. pneumoniae ATCC 700677; test: microbe, parasite or virus in culture; conditions: ATCC 700677
Method: (§1) Antimicrobial activity of compounds was tested against a number of bacterial strains by broth microdilution (BMD) assay with MIC determination, including S. aureus (MSSA ATCC® 29213™, MRSA ATCC® 43300™, VISA NARSA NRS1, VISA NARSA NRS4), Streptococcus pneumoniae (MDR ATCC® 700677™) and Enterococcus faecium (MDR VanA ATCC® 51559™). ATCC strains were sourced from the American Type Culture Collection and NRS strains from NARSA (Network on Antimicrobial Resistance in S. aureus) via BEI Resources (www.beiresources.org). All compounds were prepared to 160 µg mL^−1 solution in water from a stock solution of 1 mM concentration.
(§2) The compounds, along with standard antibiotics were serially diluted twofold across the wells of 96-well non-binding surface (NBS) polystyrene plates (Corning 3641). […] Standards ranged from 64 to 0.03 µg mL^−1 and compounds from 8 to 0.003 µg mL^−1 with final assay volumes of 100 µL per well. Gram-positive bacteria were cultured in Mueller Hinton broth (MHB) (Bactolaboratories, Cat. no. 211443) at 37 °C overnight. A sample of each culture was then diluted 40-fold in fresh MHB and incubated at 37 °C for 2–3 h. […] All the plates were covered and incubated at 37 °C for 24 h. MICs were the lowest concentration showing no visible growth.

[2] = tested on: Vancomycin-intermediate S. aureus NRS1; test: microbe, parasite or virus in culture; conditions: Vancomycin-intermediate NRS1
Method: as §1, §2

Cytotoxicity MTT assay [3] = type: cell-based, human; conditions: human
Method: (§3) Compound cytotoxicity was evaluated against HepG2 (ATCC-®HB-8065 liver hepatoceullular carcinoma) and HEK293 (ATCC®CRL-1573, embryonic kidney) human cell lines using standard (3-(4,5-dimethylthiazol-2-yl)−2,5-diphenyltetrazolium bromide (MTT) assay protocol with slight changes. In brief, HepG2 and HEK293 cells (assessed annually for mycoplasma contamination) were seeded as 1.5 × 10^4 cells per well in a clear 96-well tissue culture treated plate in a final volume of 100 μL in Dulbecco’s Modified Eagle Medium (DMEM)(GIBCO-Invitrogen #11995-073), in which 1% of FBS was added. Cells were incubated for 24 h at 37 °C, 5% CO2 to allow cells to attach to the plates. Compounds prepared at 100 µM to 0.046 µM in threefold dilutions were added into each well and incubated for 24 h at 37 °C, 5% CO2. After the incubation, 0.4 mg mL^−1 MTT (3-(4,5-dimethylthiazol-2-yl)−2,5-diphenyltetrazolium bromide) (Invitrogen) was added to each well. The plates were then incubated for 2 h at 37 °C, 5% CO2. The media was removed, and purple formazan crystals were resuspended in 60 μL of DMSO. The absorbance was read at 570 nm using a Polarstar Omega plate reader. The data was then analysed by Prism software. Results are presented as the average percentage of control ± S.D. for each set of duplicate wells using the following equation: percent viability = (ABSTEST – ABSPOSITIVE CTRL / ABSUNTREATED –ABS POSITIVE CTRL)×100.

[4] = tested on: Methicillin-resistant S. aureus ATCC 43300; test: microbe, parasite or virus in culture; conditions: ATCC 43300, 24 h
Method: as §1
[…] […] Standards ranged from 64 to 0.03 µg mL^−1 and compounds from 8 to 0.003 µg mL^−1 with final assay volumes of 100 µL per well. Gram-positive bacteria were cultured in Mueller Hinton broth (MHB) (Bactolaboratories, Cat. no. 211443) at 37 °C overnight. A sample of each culture was then diluted 40-fold in fresh MHB and incubated at 37 °C for 2–3 h. […] All the plates were covered and incubated at 37 °C for 24 h. MICs were the lowest concentration showing no visible growth.

Cytotoxicity MTT assay [5] = type: cell-based, human; conditions: human; remark: listed apart in the source
Method: as §3, with “Compounds prepared at 100 µM to 0.046 µM in threefold dilutions were added into each well and incubated for 24 h at 37 °C, 5% CO2.” left out

[6] = tested on: Vancomycin-resistant (VanA) Enterococcus faecium ATCC 51559; test: microbe, parasite or virus in culture; conditions: ATCC 51559
Method: as §1, §2

SMILES	MIC MDR S.P. [1] [µg/mL]	MIC VISA [2] [µg/mL]	MIC MRSA [4] [µg/mL]	MIC VRE [6] [µg/mL]	CC50 at 24 h (Cytotoxicity MTT assay [3]) [µM]	CC50 at 24 h (Cytotoxicity MTT assay [5]) [µM]
CCCCCCCCCCCCCC(=O)NCC(=O)N[C@@H](CO)C(=O)N[C@@H](CCCCN)C(=O)N[C@@H](CCCCN)C(=O)N[C@@H](CCCCN)C(=O)N[C@@H](CCCCNC(=O)[C@H]1NC(=O)[C@H]2NC(=O)[C@H](NC(=O)[C@@H]3NC(=O)[C@H](CC(N)=O)NC(=O)[C@H](NC(=O)[C@@H](CC(C)C)NC)[C@H](O)c4ccc(c(Cl)c4)Oc4cc3cc(c4O[C@@H]3O[C@H](CO)[C@@H](O)[C@H](O)[C@H]3O[C@H]3C[C@](C)(N)[C@H](O)[C@H](C)O3)Oc3ccc(cc3Cl)[C@H]2O)c2ccc(O)c(c2)-c2c(O)cc(O)cc21)C(=O)O [Compound 16, nC13CO-GSKKK-K(Vancomycin)-OH]	<0.003	0.007 (≈ 0.00302 µM)	0.06 (≈ 0.0259 µM)	–	53	18
CCCCCCCCCC(=O)NCC(=O)N[C@@H](CO)C(=O)N[C@@H](CO)C(=O)N[C@@H](CCCCN)C(=O)N[C@@H](CO)C(=O)N1CCC[C@H]1C(=O)N[C@@H](CO)C(=O)N[C@@H](CCCCN)C(=O)N[C@@H](CCCCN)C(=O)N[C@@H](CCCCN)C(=O)N[C@@H](CCCCN)C(=O)N[C@@H](CCCCN)C(=O)N[C@@H](CCCCN)C(=O)N1CCC[C@H]1C(=O)NCC(=O)N[C@@H](CC(=O)O)C(=O)N[C@@H](CSSCCNC(=O)[C@H]1NC(=O)[C@H]2NC(=O)[C@H](NC(=O)[C@@H]3NC(=O)[C@H](CC(N)=O)NC(=O)[C@H](NC(=O)[C@@H](CC(C)C)NC)[C@H](O)c4ccc(c(Cl)c4)Oc4cc3cc(c4O[C@@H]3O[C@H](CO)[C@@H](O)[C@H](O)[C@H]3O[C@H]3C[C@](C)(N)[C@H](O)[C@H](C)O3)Oc3ccc(cc3Cl)[C@H]2O)c2ccc(O)c(c2)-c2c(O)cc(O)cc21)C(N)=O [Compound 6]	3 (≈ 0.87 µM)	>8	2.5 (≈ 0.725 µM)	1.25 (≈ 0.362 µM)	> 100	> 100

The next lines start with results.

MIC MDR S.P. [1] [µg/mL]	MIC VISA [2] [µg/mL]	MIC MRSA [4] [µg/mL]	MIC VRE [6] [µg/mL]	SMILES	CC50 at 24 h (Cytotoxicity MTT assay [3]) [µM]	CC50 at 24 h (Cytotoxicity MTT assay [5]) [µM]
0.09 (≈ 0.0288 µM)	0.5 (≈ 0.16 µM)	0.16 (≈ 0.0513 µM)	0.125 (≈ 0.04 µM)	CCCCCCCCCCCCCC(=O)NCC(=O)N[C@@H](CO)C(=O)N[C@@H](CO)C(=O)N[C@@H](CCCCN)C(=O)N[C@@H](CO)C(=O)N1CCC[C@H]1C(=O)N[C@@H](CO)C(=O)N[C@@H](CCCCN)C(=O)N[C@@H](CCCCN)C(=O)N[C@@H](CCCCN)C(=O)N1CCC[C@H]1C(=O)NCC(=O)N[C@@H](CC(=O)O)C(=O)N[C@@H](CSSCCNC(=O)[C@H]1NC(=O)[C@H]2NC(=O)[C@H](NC(=O)[C@@H]3NC(=O)[C@H](CC(N)=O)NC(=O)[C@H](NC(=O)[C@@H](CC(C)C)NC)[C@H](O)c4ccc(c(Cl)c4)Oc4cc3cc(c4O[C@@H]3O[C@H](CO)[C@@H](O)[C@H](O)[C@H]3O[C@H]3C[C@](C)(N)[C@H](O)[C@H](C)O3)Oc3ccc(cc3Cl)[C@H]2O)c2ccc(O)c(c2)-c2c(O)cc(O)cc21)C(N)=O [Compound 11]	18	9
0.06 (≈ 0.0173 µM)	1 (≈ 0.288 µM)	0.09 (≈ 0.0259 µM)	0.02 (≈ 0.00575 µM)	CCCCCCCCCCCC(=O)NCC(=O)N[C@@H](CO)C(=O)N[C@@H](CO)C(=O)N[C@@H](CCCCN)C(=O)N[C@@H](CO)C(=O)N1CCC[C@H]1C(=O)N[C@@H](CO)C(=O)N[C@@H](CCCCN)C(=O)N[C@@H](CCCCN)C(=O)N[C@@H](CCCCN)C(=O)N[C@@H](CCCCN)C(=O)N[C@@H](CCCCN)C(=O)N[C@@H](CCCCN)C(=O)N1CCC[C@H]1C(=O)NCC(=O)N[C@@H](CC(=O)O)C(=O)N[C@@H](CSSCCNC(=O)[C@H]1NC(=O)[C@H]2NC(=O)[C@H](NC(=O)[C@@H]3NC(=O)[C@H](CC(N)=O)NC(=O)[C@H](NC(=O)[C@@H](CC(C)C)NC)[C@H](O)c4ccc(c(Cl)c4)Oc4cc3cc(c4O[C@@H]3O[C@H](CO)[C@@H](O)[C@H](O)[C@H]3O[C@H]3C[C@](C)(N)[C@H](O)[C@H](C)O3)Oc3ccc(cc3Cl)[C@H]2O)c2ccc(O)c(c2)-c2c(O)cc(O)cc21)C(N)=O [Compound 7]	89	65
0.125 (≈ 0.0354 µM)	2 (≈ 0.566 µM)	0.06 (≈ 0.017 µM)	8 (≈ 2.26 µM)	CCCCCCCCCCCCCCCC(=O)NCC(=O)N[C@@H](CO)C(=O)N[C@@H](CO)C(=O)N[C@@H](CCCCN)C(=O)N[C@@H](CO)C(=O)N1CCC[C@H]1C(=O)N[C@@H](CO)C(=O)N[C@@H](CCCCN)C(=O)N[C@@H](CCCCN)C(=O)N[C@@H](CCCCN)C(=O)N[C@@H](CCCCN)C(=O)N[C@@H](CCCCN)C(=O)N[C@@H](CCCCN)C(=O)N1CCC[C@H]1C(=O)NCC(=O)N[C@@H](CC(=O)O)C(=O)N[C@@H](CSSCCNC(=O)[C@H]1NC(=O)[C@H]2NC(=O)[C@H](NC(=O)[C@@H]3NC(=O)[C@H](CC(N)=O)NC(=O)[C@H](NC(=O)[C@@H](CC(C)C)NC)[C@H](O)c4ccc(c(Cl)c4)Oc4cc3cc(c4O[C@@H]3O[C@H](CO)[C@@H](O)[C@H](O)[C@H]3O[C@H]3C[C@](C)(N)[C@H](O)[C@H](C)O3)Oc3ccc(cc3Cl)[C@H]2O)c2ccc(O)c(c2)-c2c(O)cc(O)cc21)C(N)=O [Compound 9]	7	4
0.06 (≈ 0.0203 µM)	0.5 (≈ 0.17 µM)	0.09 (≈ 0.0305 µM)	0.007 (≈ 0.00237 µM)	CCCCCCCCCCCCCC(=O)NCC(=O)N[C@@H](CO)C(=O)N[C@@H](CO)C(=O)N[C@@H](CCCCN)C(=O)N[C@@H](CO)C(=O)N1CCC[C@H]1C(=O)N[C@@H](CO)C(=O)N[C@@H](CCCCN)C(=O)N[C@@H](CCCCN)C(=O)N[C@@H](CCCCN)C(=O)N1CCC[C@H]1C(=O)N[C@@H](CSSCCNC(=O)[C@H]1NC(=O)[C@H]2NC(=O)[C@H](NC(=O)[C@@H]3NC(=O)[C@H](CC(N)=O)NC(=O)[C@H](NC(=O)[C@@H](CC(C)C)NC)[C@H](O)c4ccc(c(Cl)c4)Oc4cc3cc(c4O[C@@H]3O[C@H](CO)[C@@H](O)[C@H](O)[C@H]3O[C@H]3C[C@](C)(N)[C@H](O)[C@H](C)O3)Oc3ccc(cc3Cl)[C@H]2O)c2ccc(O)c(c2)-c2c(O)cc(O)cc21)C(N)=O [Compound 12]	41	26
